Source: patent publication US8008458B2, “Fatty acid phenolic conjugates” (Indiana University Health Inc., priority 2002, dated 2011)

Key:
Type in all cases: cell-based
[1] = system: MDA-231-MB breast cancer cells; experiment: Induction of apoptosis, activated caspase 3 (FITC-DEVD-FMK fluorescence microscopy); conditions: 25 μM or similar concentrations, 4 hours at 37° C. (FIG. 11)
Experimental: DHA and EPA conjugates of propofol are used to test their activities against MDA-231-MB breast cancer cells. Induction of apoptosis was assayed by incubating cells with DHA, EPA, or propofol alone or DHA, EPA with propofol as well as DHA-, and EPA as propofol conjugates for 4 hours at 37° C.

[2] = system: breast carcinoma MDA-MB-231 cells; experiment: Cell adhesion assay, adherence to human vitronectin; conditions: 45 min at 37° C., compared with vehicle treated control (FIG. 13)
Experimental: The cell adhesion assay was performed according to the procedure described in Deryugina, E. I., Ratnikov, B., Postnova, T. I., Rozanov, D. V., Strongin, A. Y. (2002) J. Biol. Chem. 277, 9749-9756. The cell adhesion assay was preformed using cyctomatrix of human vitronectin in a 96-well plate (Chemicon International Incorp. of Temecula, Calif.). Each well was incubated with 100 μL of breast carcinoma MDA-MB-231 cells (1×10^5 cells/ml) at 37° C. for 45 min in a CO2 incubator. Individual wells were treated with one of the following: (a) individual agents: DHA, EPA, and propofol; or (b) the combined agents: DHA and propofol, and EPA and propofol; or (c) the conjugates DHA-propofol, or EPA propofol (prepared as described above in Examples 2 and 3). After incubation, the wells were washed three times with PBS, and the adhered cells were stained with crystal violet in 10% ethanol for 5 min at room temperature. The excess stain was subsequently removed by washing the wells six times with PBS. The stained cells were dissolved in 100 microliters (μL) of solubilizing buffer (1:1 mixture of 0.1M NaH2PO4 at a pH of 4.5 in 50% ethanol) and the absorbance of each of the resulting samples was read at 540 nm. The absorbance of dye in the control (vehicle treated cells) was regarded as 100%, and the percent adherence of treated cells was calculated in comparison to that control.

Jurkat leukemic cells = experiment: Jurkat leukemic cell growth and viability (WST-1 Cell Proliferation Kit); conditions: RVT alone, 10 μM, 24 hours, RPMI media containing 2% serum
Experimental: In order to evaluate the anti-proliferative activity and synergism between DHA and RVT, the two compounds were added separately to cell cultures containing Jurkat leukemic cells. In a separate experiment, a mixture of DHA and RVT components were added to the Jurkat leukemic cell cultures. The results are illustrated in FIG. 8 as a bar graph. Jurkat cells (Jurkat clone E6-1 from American Type Culture Collection of Manassas, Va. (5×10^4/well)) were incubated with either DHA or RVT, or a combination as indicated in a 96-well plate for 24 hours at 37° C. using a 5% CO2 in RPMI media containing 2% serum. Cell growth and viability were determined using a WST-1 Cell Proliferation Kit (sold by Roche Molecular Biochemicals of Indianapolis, Ind.). The control was a “ethanol-treated” control group. For the results illustrated in FIG. 8, the average was taken of three separate experiments. For the combination of DHA and RVT, a student t test provided a P<0.001 relative to the “ethanol-treated” control group. […] However, when the two components were combined into a single formulation, a synergistic inhibition of Jurkat cell growth was observed. The combination of DHA (30 μM) and RVT (10 μM) inhibited cell growth by about 60%. This is indicative of a synergistic interaction between DHA and RVT on cancer cell growth. […]

Jurkat cells = experiment: Jurkat leukemic cell apoptosis (YO-PRO-1 labeling, flow cytometry)
Experimental: The DHA-RVT ester prepared according to Example 1 was dissolved in DMSO. This solution was used to treat Jurkat cells labeled with YO-PRO-1 (sold by Molecular Probes of Oregon), which is a green fluorescent dye used in flagging apoptotic cells. The labeled cells were analyzed using a FACStar-plus flow cytometer equipped with a water-cooled argon laser emitting at a frequency of 488 nm. Detection of the fluorescent probe was ascertained using a 530±30 band-pass filter. The data depicted in FIGS. 10a-c are illustrated in the form of a histogram. The fluorescent intensity is indicative of apoptotic expression. The unfilled histogram represents the labeled, non-treated cells (1); the filled histogram represents the treated cells (2). […] At approximately 1 μM concentration, the DHA-RVT ester induced apoptosis in approximately 50% of the Jurkat cells (FIG. 10b) while at a concentration of 0.1 μM the ester had little effect on the Jurkat cells (FIG. 10c). Concentrations of resveratrol (10 μM) plus DHA (10 μM) have no effect on Jurkat cell growth.

| Compound | induction of apoptosis [1] | inhibition of adherence of cancerous cells to vitronectin [2] | other results |
| --- | --- | --- | --- |
| CCC=CCC=CCC=CCC=CCC=CCC=CCCC(=O)Oc1c(C(C)C)cccc1C(C)C [DHA-propofol, 2,6 Diisopropylphenyldocosa-Hexaenoate] | effectively induced apoptosis | inhibition of adherence | – |
| CC/C=C\C/C=C\C/C=C\C/C=C\C/C=C\CCCC(=O)O [EPA, eicosopentenoic acid, reference compound] | not very effective | not displayed | – |
| CCC=CCC=CCC=CCC=CCC=CCCCC(=O)Oc1c(C(C)C)cccc1C(C)C [EPA-propofol, 2,6-Diisopropylphenyl Eicosopentenoate] | effectively induced apoptosis | inhibition of adherence | – |
| Oc1ccc(C=Cc2cc(O)cc(O)c2)cc1 [RVT, resveratrol] | – | – | effect on Jurkat cell growth (Jurkat leukemic cells): neither the DHA (up to 30 μM) nor the RVT (10 μM) alone had any significant effect |
| CC(C)c1cccc(C(C)C)c1O [propofol, 2,6-diisopropylphenol, reference compound] | not very effective | not displayed | – |
| resveratrol ester of docosahexaenoic acid [DHA-RVT ester] | – | – | effect on Jurkat cells (apoptosis) (Jurkat cells; 0.1 μM (FIG. 10c)): little effect; apoptosis of Jurkat cells (Jurkat cells; 10 μM (FIG. 10a)): apoptosis in nearly all; Jurkat cells in which apoptosis was induced (Jurkat cells; approximately 1 μM (FIG. 10b)): approximately 50% |
